# Test results as given in US9670133B2, “Mixtures of cannabinoid compounds, and production and use thereof” (priority 2013, dated 2017).
# Key:
# CB2 receptors [1] = target: T1, CB2 receptors (Homo sapiens, UniProt P34972); assay: Signal transduction in CHO-CB2-CREluc cells (luciferase; forskolin, AM630); details: for Effect on CB2 receptor (in words): text statement
# NFAT = assay: Jurkat T cell model, NFAT dependent luciferase activation by PMA plus ionomycin; type: cell-based; details: luciferase construct
# Protocol: (§1) Substances according to the invention were investigated in an accepted Jurkat T cell model. The underlying mechanism is based on the fact that the transcriptional activity of lymphokines, such as e.g. the one of IL-2, is based on the coordinated activation of different transcription factors, such as e.g. NFAT and NF-κB. The effect of the substances according to the invention on said factors was evaluated in-vitro with the aid of a luciferase-coupled construct (KBF-luc). Thereby, an activation of transiently transfected cells (Jurkat T cells) through PMA (plus ionomycin in case of NFAT activation), driven by a NF-κB or NFAT dependent promoter, leads to a strong induction of luciferase gene expression. The inhibition of the luciferase activity was measured as a function of the dose rate of the substance according to the invention. A knowledgeable person skilled in the art can easily follow such procedure from the literature (e.g. in Yuan et al. (2002), Sancho et al. (2003), Do et al. (2004) and Cencioni et al. (2010)).
# CB1 receptors [2] = target: T2, CB1 receptors (Homo sapiens, UniProt P21554); assay: Signal transduction in CHO-CB1-CREluc cells (luciferase; agonism, and antagonism against WIN); details: for Effect on CB1 receptor (in words): text statement
# CB1 receptors [3] = target: T2, CB1 receptors; assay: biochemical; type: binding; parameters: purchased RBHCB1M400UA; host or cells: human cells (transfected); details: for Ki: dissociation constant, mean +/- SEM, competition with [3H]-CP55940; for CB1 (% binding): screening with a single high dose, displacement of [3H]-CP55940
# CB2 receptors [4] = target: T1, CB2 receptors; assay: Competition binding study with [3H]-CP55940 in CB2 receptor transfected cell membranes; parameters: purchased RBXCB2M400UA; host or cells: human cells (transfected); details: for Ki: dissociation constant, mean +/- SEM, competition with [3H]-CP55940; for Ki (CB1): Ki (CB2) Selectivity for CB2 in comparison to CB1 (rounded): ratio of Ki values; for CB2 (% binding): screening with a single high dose, displacement of [3H]-CP55940
# NF-κB = assay: Jurkat T cell model, NF-κB dependent luciferase activation by PMA; type: cell-based; details: luciferase construct
# Protocol: as §1
# [5] = listed as 2-Hydroxyethyl cannabidiolate
# [6] = listed as Glyceryl cannabidiolate
# [7] = listed as N-Methyl-sulfonyl cannabidiolate
# T1 sequence (P34972 whole entry): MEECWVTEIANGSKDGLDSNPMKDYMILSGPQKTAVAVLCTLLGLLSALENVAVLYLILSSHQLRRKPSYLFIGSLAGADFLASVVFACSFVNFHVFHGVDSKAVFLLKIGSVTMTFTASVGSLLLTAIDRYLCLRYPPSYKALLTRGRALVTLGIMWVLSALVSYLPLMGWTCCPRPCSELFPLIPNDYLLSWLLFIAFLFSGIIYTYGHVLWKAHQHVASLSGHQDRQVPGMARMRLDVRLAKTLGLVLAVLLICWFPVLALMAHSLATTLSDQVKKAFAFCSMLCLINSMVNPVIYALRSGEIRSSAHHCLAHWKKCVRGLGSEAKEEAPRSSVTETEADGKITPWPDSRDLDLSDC
# T2 sequence (P21554 whole entry): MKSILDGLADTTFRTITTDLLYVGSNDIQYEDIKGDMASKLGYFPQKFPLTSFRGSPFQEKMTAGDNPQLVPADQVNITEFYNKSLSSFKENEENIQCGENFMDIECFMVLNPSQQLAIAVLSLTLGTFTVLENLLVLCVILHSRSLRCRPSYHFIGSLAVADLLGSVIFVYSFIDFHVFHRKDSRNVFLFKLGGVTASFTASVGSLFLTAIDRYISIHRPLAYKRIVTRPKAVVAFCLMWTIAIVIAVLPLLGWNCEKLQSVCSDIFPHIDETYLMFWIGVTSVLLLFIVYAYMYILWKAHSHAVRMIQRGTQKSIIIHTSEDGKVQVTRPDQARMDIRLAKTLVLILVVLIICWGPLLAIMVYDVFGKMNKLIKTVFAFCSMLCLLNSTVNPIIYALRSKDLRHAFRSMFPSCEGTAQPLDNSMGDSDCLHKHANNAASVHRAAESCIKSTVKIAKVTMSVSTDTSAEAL
Compound,Effect on CB2 receptor (in words) (CB2 receptors [1]),Inhibition of NFAT dependent activation of T cells (NFAT),Effect on CB1 receptor (in words) (CB1 receptors [2]),Agonism and antagonism at CB2 (CB2 receptors [1]),Effect on CB2 receptor (in words) (CB2 receptors [1]; [5]),Ki (CB1 receptors [3]) [nM],CB1 (% binding) (CB1 receptors [3]) [%],Agonism and antagonism at CB1 (CB1 receptors [2]),Effect on CB1 receptor (in words) (CB1 receptors [2]; [5]),Ki (CB2 receptors [4]) [nM],Ki (CB1): Ki (CB2) Selectivity for CB2 in comparison to CB1 (rounded) (CB2 receptors [4]),CB2 (% binding) (CB2 receptors [4]) [%],Effect on CB2 receptor (in words) (CB2 receptors [1]; [6]),Effect on CB1 receptor (in words) (CB1 receptors [2]; [6]),Effect on CB1 receptor (in words) (CB1 receptors [2]; listed as cyclohexyl cannabidiolate),Effect on CB2 receptor (in words) (CB2 receptors [1]; [7]),Binding to CB1 receptors (in words) (CB1 receptors [3]),Effect on CB1 receptor (in words) (CB1 receptors [2]; [7]),Inhibition of NF-κB dependent activation of T cells (NF-κB),Binding to CB2 receptors (in words) (CB2 receptors [4])
C=C(C)C1CCC(C)=CC1c1c(O)cc(CCCCC)c(C(=O)OCC(O)CCC)c1O (centres unmarked) [2-hydroxypentyl cannabidiolate],strong activation,inhibition,inhibit,,,,,,,,,,,,,,,,,
"C=C(C)[C@@H]1CCC(C)=C[C@H]1c1c(O)cc(CCCCC)c(C(=O)OCCO)c1O [Compound III, 2-hydroxyethyl cannabidiolate]",CB2 agonists,inhibition,CB1 antagonists,+,strong activation,3920,77.3 ± 6.5,−,inhibit,375 ± 47.7,10.4,90.3 ± 2.4,,,,,,,,
"C=C(C)[C@@H]1CCC(C)=C[C@H]1c1c(O)cc(CCCCC)c(C(=O)OCC(O)CO)c1O (some centres unmarked) [Compound IV, Glyceryl cannabidiolate]",CB2 agonists,inhibition,CB1 agonists,+,,2170,90.2 ± 3.8,+,,277 ± 78.7,7.8,101.6 ± 0.5,strong activation,weak activation,,,,,,
"C=C(C)[C@@H]1CCC(C)=C[C@H]1c1c(O)cc(CCCCC)c(C(=O)OCC(O)CCC)c1O (some centres unmarked) [Compound V, 2-hydroxypentyl cannabidiolate]",CB2 agonists,,CB1 antagonists,+,,538 ± 53.9,82.0 ± 8.0,−,,,,,,,,,,,,
C=C(C)C1CCC(C)=CC1c1c(O)cc(CCCCC)c(C(=O)OCCCCCC)c1O (centres unmarked) [Hexyl cannabidiolate],antagonism,,antagonism,+,,,,+,,,,,,,,,,,,
"C=C(C)[C@@H]1CCC(C)=CC1c1c(O)cc(CCCCC)c(C(=O)OCCCCCC)c1O (some centres unmarked) [XI, Hexyl cannabidiolate]",CB2 agonists,,CB1 agonists,,,538 ± 53.9,92.2 ± 1.7,,,510 ± 29,1,97.2 ± 3.4,,,,,,,,
"C=C(C)[C@@H]1CCC(C)=CC1c1c(O)cc(CCCCC)c(C(=O)OC2CCCCC2)c1O (some centres unmarked) [XII, Cyclohexyl cannabidiolate]",,,CB1 antagonists,0,,538 ± 53.9,81.5 ± 6.8,−,,67 ± 4,37,99.2 ± 2.3,,,antagonistic effect,,,,,
"C=C(C)[C@@H]1CCC(C)=CC1c1c(O)cc(CCCCC)c(C(=O)OCCNS(C)(=O)=O)c1O (some centres unmarked) [XIII, N-Methyl-sulfonyl cannabidiolate]",CB2 agonists,strong inhibition,CB1 antagonists,+,,538 ± 53.9,98.9 ± 7.8,−,,0.012 ± 0.001,22.5,104.9 ± 4.8,,,,agonistic effect,high binding affinity,antagonistic effect,strong inhibition,high binding affinity
